In the supplement of paper PMC6045584:
± gives the standard deviation of the averaged measurements.

Assays:
[1] = compound: COc1cc(CCc2cc(NC(=O)c3ccc(N4CC(C)NC(C)C4)cc3)n[nH]2)cc(OC)c1 [AZD4547]; test: surviving fraction relative to DMSO-only wells; higher = less growth inhibition; conditions: exposure time: 5 days
Outline: (§1)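 Log-phase tumour cell lines, 250–500 cells per well in 384-well plates, received inhibitors at 0.5, 1, 5, 10, 50, 100, 500 and 1000 nM continuously for five days, starting 24 hours after seeding. Viability was quantified with CellTiter-Glo luminescence and normalised to the median of DMSO-only wells to give surviving fraction. Three screens were run per line, and a line stayed in only with replicate Pearson r >0.7 and median Z' >0.3.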

[2] = compound: NC1(c2ccc(-c3nc4ccn5c(=O)[nH]nc5c4cc3-c3ccccc3)cc2)CCC1 [MK2206]; test: as above; conditions: exposure time: 5 days
Outline: as §1

Row | Test System | surviving fraction ([1]; 0.5 nM) | surviving fraction ([1]; 1 nM) | surviving fraction ([1]; 5 nM) | surviving fraction ([1]; 10 nM) | surviving fraction ([1]; 50 nM) | surviving fraction ([1]; 100 nM) | surviving fraction ([1]; 500 nM) | surviving fraction ([1]; 1000 nM) | surviving fraction ([2]; 0.5 nM) | surviving fraction ([2]; 1 nM) | surviving fraction ([2]; 5 nM) | surviving fraction ([2]; 10 nM) | surviving fraction ([2]; 50 nM) | surviving fraction ([2]; 100 nM) | surviving fraction ([2]; 500 nM) | surviving fraction ([2]; 1000 nM)
1 | 22RV1 PROSTATE | 1 ± 0.06 | 1.01 ± 0.059 | 1.02 ± 0.044 | 1.07 ± 0.056 | 0.998 ± 0.048 | 1.03 ± 0.053 | 1.1 ± 0.084 | 1.08 ± 0.082 | 1.04 ± 0.045 | 0.987 ± 0.09 | 0.87 ± 0.09 | 0.921 ± 0.17 | 0.707 ± 0.12 | 0.762 ± 0.064 | 0.554 ± 0.05 | 0.582 ± 0.0085
2 | 93VU HEADNECK | 1.01 ± 0.063 | 1.08 ± 0.058 | 1.08 ± 0.09 | 1.11 ± 0.05 | 1.11 ± 0.042 | 1.16 ± 0.089 | 1.1 ± 0.077 | 0.975 ± 0.086 | 1.06 ± 0.076 | 1.07 ± 0.14 | 1.1 ± 0.093 | 1.15 ± 0.048 | 1.02 ± 0.045 | 0.999 ± 0.11 | 0.789 ± 0.085 | 0.649 ± 0.038
3 | 143B BONE | 0.948 ± 0.096 | 1.011 ± 0.0042 | 1.04 ± 0.014 | 1.02 ± 0.067 | 0.921 ± 0.13 | 1.01 ± 0.06 | 0.994 ± 0.04 | 0.974 ± 0.1 | 0.912 ± 0.012 | 0.969 ± 0.042 | 0.974 ± 0.082 | 1.1 ± 0.1 | 0.957 ± 0.024 | 0.959 ± 0.064 | 0.96 ± 0.034 | 0.939 ± 0.033
4 | A549 LUNG | 0.984 ± 0.02 | 1.03 ± 0.064 | 1.01 ± 0.039 | 1.02 ± 0.069 | 0.9867 ± 0.0075 | 1.03 ± 0.066 | 0.983 ± 0.026 | 1.031 ± 0.007 | 1.05 ± 0.023 | 1.1 ± 0.028 | 1.06 ± 0.037 | 1.081 ± 0.0074 | 1.06 ± 0.017 | 1.08 ± 0.026 | 1.06 ± 0.024 | 1.09 ± 0.042
5 | ASKA SYNOVIAL | 1.15 ± 0.06 | 1.11 ± 0.015 | 1.2 ± 0.058 | 1.12 ± 0.021 | 1.16 ± 0.036 | 1.08 ± 0.084 | 0.877 ± 0.059 | 0.658 ± 0.041 | 0.991 ± 0.089 | 1.06 ± 0.014 | 1 ± 0.04 | 1.02 ± 0.16 | 0.771 ± 0.038 | 0.724 ± 0.064 | 0.482 ± 0.018 | 0.481 ± 0.022
6 | BT20 BREAST | 1.12 ± 0.13 | 1.08 ± 0.071 | 1.11 ± 0.059 | 1.13 ± 0.061 | 1.05 ± 0.072 | 1.04 ± 0.072 | 1.15 ± 0.043 | 0.968 ± 0.15 | 1.14 ± 0.045 | 1.15 ± 0.07 | 1.05 ± 0.034 | 1.01 ± 0.078 | 1.11 ± 0.12 | 1.16 ± 0.052 | 1.39 ± 0.066 | 1.16 ± 0.05
7 | BT549 BREAST | 1.16 ± 0.2 | 1.06 ± 0.055 | 1.16 ± 0.18 | 1.19 ± 0.13 | 1.04 ± 0.12 | 0.95 ± 0.096 | 0.968 ± 0.094 | 0.861 ± 0.052 | 1.07 ± 0.092 | 1.06 ± 0.048 | 0.982 ± 0.15 | 1.06 ± 0.07 | 0.837 ± 0.05 | 0.833 ± 0.091 | 0.616 ± 0.078 | 0.46 ± 0.043
8 | CADOES1 SOFT TISSUE | 0.988 ± 0.032 | 1.02 ± 0.097 | 0.977 ± 0.1 | 0.973 ± 0.046 | 0.912 ± 0.085 | 0.955 ± 0.017 | 1.09 ± 0.11 | 0.992 ± 0.11 | 1.02 ± 0.12 | 0.925 ± 0.099 | 0.915 ± 0.097 | 0.926 ± 0.036 | 0.828 ± 0.088 | 0.815 ± 0.092 | 0.711 ± 0.077 | 0.591 ± 0.071
9 | CAL51 BREAST | 0.9767 ± 0.007 | 0.977 ± 0.035 | 0.937 ± 0.029 | 0.849 ± 0.052 | 0.7553 ± 0.0068 | 0.738 ± 0.022 | 0.616 ± 0.021 | 0.602 ± 0.059 | 0.986 ± 0.05 | 1.09 ± 0.079 | 1.06 ± 0.031 | 1.02 ± 0.035 | 0.996 ± 0.043 | 0.993 ± 0.072 | 0.731 ± 0.027 | 0.56 ± 0.03
10 | CAL120 BREAST | 0.945 ± 0.043 | 0.9817 ± 0.0068 | 0.937 ± 0.03 | 0.888 ± 0.025 | 0.713 ± 0.029 | 0.681 ± 0.019 | 0.552 ± 0.05 | 0.491 ± 0.039 | 0.976 ± 0.071 | 0.977 ± 0.062 | 0.991 ± 0.068 | 1.01 ± 0.06 | 0.966 ± 0.051 | 0.951 ± 0.031 | 0.859 ± 0.038 | 0.823 ± 0.043
11 | CASKI CERVIX | 0.927 ± 0.055 | 0.951 ± 0.033 | 1.01 ± 0.014 | 1.02 ± 0.073 | 0.961 ± 0.053 | 1.03 ± 0.048 | 0.805 ± 0.02 | 0.548 ± 0.019 | 0.905 ± 0.04 | 0.97 ± 0.055 | 0.951 ± 0.065 | 0.88 ± 0.011 | 0.736 ± 0.055 | 0.627 ± 0.039 | 0.44 ± 0.047 | 0.36 ± 0.022
12 | CHLA90 AUTONOMIC GANGLIA | 0.994 ± 0.075 | 1.04 ± 0.099 | 1.07 ± 0.07 | 1.01 ± 0.014 | 0.883 ± 0.051 | 0.692 ± 0.039 | 0.568 ± 0.029 | 0.473 ± 0.041 | 1.04 ± 0.058 | 1.01 ± 0.037 | 0.944 ± 0.013 | 0.929 ± 0.025 | 0.945 ± 0.024 | 0.997 ± 0.1 | 0.9213 ± 0.0085 | 0.947 ± 0.053
13 | CME SYNOVIAL | 1.21 ± 0.046 | 1.09 ± 0.063 | 1.29 ± 0.11 | 1.14 ± 0.14 | 1 ± 0.075 | 0.935 ± 0.097 | 0.761 ± 0.051 | 0.724 ± 0.035 | 1.25 ± 0.18 | 1.22 ± 0.043 | 1.35 ± 0.13 | 1.35 ± 0.099 | 1.18 ± 0.085 | 1.23 ± 0.18 | 1.13 ± 0.099 | 0.901 ± 0.093
14 | COLO320DM LARGE INTESTINE | 1.08 ± 0.027 | 1.11 ± 0.049 | 0.994 ± 0.036 | 0.997 ± 0.21 | 1.1 ± 0.076 | 1.05 ± 0.1 | 1.08 ± 0.078 | 1.1 ± 0.2 | 0.985 ± 0.038 | 1.12 ± 0.11 | 1.11 ± 0.052 | 1.08 ± 0.066 | 1.03 ± 0.15 | 0.969 ± 0.059 | 0.707 ± 0.047 | 0.557 ± 0.056
15 | DU4475 BREAST | 1.12 ± 0.37 | 0.979 ± 0.16 | 1.03 ± 0.27 | 0.998 ± 0.13 | 1.15 ± 0.3 | 1.08 ± 0.21 | 1.11 ± 0.21 | 1 ± 0.22 | 1.07 ± 0.035 | 1.08 ± 0.094 | 0.989 ± 0.11 | 1 ± 0.015 | 0.828 ± 0.1 | 0.784 ± 0.019 | 0.469 ± 0.047 | 0.444 ± 0.015
16 | H23 LUNG | 0.965 ± 0.059 | 1.06 ± 0.052 | 1.03 ± 0.055 | 1.04 ± 0.02 | 1.01 ± 0.037 | 1.05 ± 0.028 | 0.979 ± 0.075 | 0.964 ± 0.066 | 0.95 ± 0.072 | 1.04 ± 0.015 | 1.017 ± 0.008 | 1.03 ± 0.053 | 0.911 ± 0.043 | 0.883 ± 0.046 | 0.776 ± 0.067 | 0.6663 ± 0.0061
17 | HCC38 BREAST | 0.972 ± 0.24 | 0.947 ± 0.062 | 1.02 ± 0.2 | 1.11 ± 0.22 | 0.78 ± 0.14 | 0.801 ± 0.14 | 0.66 ± 0.11 | 0.785 ± 0.046 | 1.36 ± 0.11 | 1.33 ± 0.26 | 1.36 ± 0.073 | 1.32 ± 0.12 | 1.32 ± 0.23 | 1.15 ± 0.083 | 1.11 ± 0.048 | 0.898 ± 0.12
18 | HCC70 BREAST | 1.03 ± 0.11 | 1.12 ± 0.082 | 1.16 ± 0.045 | 1.14 ± 0.07 | 1.1 ± 0.091 | 1.15 ± 0.018 | 1.03 ± 0.098 | 0.946 ± 0.093 | 1.03 ± 0.063 | 1.1 ± 0.08 | 1.13 ± 0.11 | 1.1 ± 0.12 | 0.93 ± 0.076 | 0.869 ± 0.094 | 0.39 ± 0.033 | 0.312 ± 0.014
19 | HCC78 LUNG | 1.04 ± 0.2 | 1.14 ± 0.23 | 1.03 ± 0.13 | 0.986 ± 0.11 | 1.08 ± 0.039 | 1.13 ± 0.25 | 1.11 ± 0.25 | 1.1 ± 0.25 | 0.785 ± 0.17 | 0.975 ± 0.05 | 1.12 ± 0.2 | 0.998 ± 0.21 | 0.848 ± 0.073 | 0.529 ± 0.13 | 0.33 ± 0.14 | 0.192 ± 0.076
20 | HCC202 BREAST | 0.984 ± 0.2 | 1.17 ± 0.39 | 0.964 ± 0.22 | 1.04 ± 0.26 | 1.31 ± 0.41 | 1.16 ± 0.1 | 1.52 ± 0.38 | 1.18 ± 0.21 | 1.07 ± 0.091 | 1.08 ± 0.12 | 1.2 ± 0.16 | 1.2 ± 0.074 | 0.699 ± 0.37 | 0.688 ± 0.035 | 0.238 ± 0.012 | 0.238 ± 0.0064
